The source of these data is US8669257B2, “Phenazine derivatives and uses thereof as potassium channel modulators” (The Johns Hopkins University, priority 2007, dated 2014).

Entries after “also recorded” stand apart in the source; their conditions may differ. Like-named read-outs stand apart in the source and are kept apart here.

For assay [1], the system named is calcium influx in Jurkat T-cells. Description: Calcium imaging assay: store-depletion induced calcium influx in Jurkat T-cells. The class given is cell-based, human. Particulars: thapsigargin then 2 mM Ca2+; clofazimine preincubated 5 min. As for the experimental part:
JurkaT-cells were attached to L-lysine-coated glass dishes (MatTek). Cells were loaded with fura-2-AM (Invitrogen_F-1201) for 45 min before they were washed sequentially with growth medium and Ca^2+-free HBSS. Fluorescence excitation wavelengths were set at 350 and 380 nm, respectively, on a Zeiss Axiovert 200M microscope while emission wavelength was set at 510 nm. Changes in intracellular calcium concentrations were determined by fluorescence intensity ratio ([…]/F380).

The next assay addresses T1, mouse Kv1.1 (Mus musculus, UniProt P16388).
T1 construct: expressed in transfected cells; host or cells: L929 cells
Kind of assay: Patch-clamp of mouse Kv1.1 stably expressed in L929 cells. The class given is cell-based. The method, then: (§1) Patch pipettes, pulled from glass capillaries (inner diameter 1.5 mm, Kimble products) with a horizontal puller (Sutter instruments, Modell P-97), were fire-polished, and had resistances between 2 and 4 MOhm. Patch-clamp experiments were performed in the tight-seal whole-cell configuration at room temperature (22-24° C.). High-resolution current recordings were acquired by a computer-based patch-clamp amplifier system (EPC-9, HEKA). Immediately following establishment of the whole-cell configuration, every two seconds voltage ramps of 50 ms duration spanning the voltage range of −100 to +100 mV for Jurkat T-cells and −150 to +150 mV for HEK293 were delivered from a holding potential (Vh) of −70 mV for Jurkats and 0 mV for HEK293 cells over a period of 300-600 s. […] Capacitive currents and series resistance were determined and corrected before each voltage ramp using the automatic capacitance compensation of the EPC-9. […] Kv1.3 currents in Jurkat T-cells were measured at +80 mV. Heterologously expressed Kv1.1, Kv1.2, Kv1.3, Kv1.5 and Kv3.1 were assessed at +80 mV except in Figure S7, where currents were additionally measured at the more physiological voltage of 0 mV. CRAC currents in HEK293 cells were assessed at −80 mV. […]

The test system of assay [2] is CRAC channel (CRACM1, CRACM2, CRACM3 with STIM1). Description: Patch-clamp of reconstituted CRAC current in HEK293 cells. The class given is cell-based. Conditions: CRACM1, CRACM2 or CRACM3 with STIM1 in HEK293 cells. As for the experimental part:
as §1

Assay [3] deals with IL-2 proximal promoter driven-luciferase. Kind of assay: IL-2 luciferase reporter assay in Jurkat T-cells (PMA/ionomycin). The class given is cell-based, human. Conditions: for IC50: n=6.
Assay [4] deals with calcineurin-NFATc2 interaction. Kind of assay: GST-NFATc2 pull-down of calcineurin. It is filed as binding.
In assay [5] the test system is mouse skin or heart transplant. Kind of assay: Mouse skin or heart transplant models (initial experiments). The class given is in vivo.
A further assay has as its system AP-1 luciferase reporter. Description: AP-1 luciferase reporter assay in Jurkat T-cells. It is filed as cell-based, human. Particulars: PMA/ionomycin, high concentrations (>1 μM for clofazimine).

T1 sequence (P16388 whole entry): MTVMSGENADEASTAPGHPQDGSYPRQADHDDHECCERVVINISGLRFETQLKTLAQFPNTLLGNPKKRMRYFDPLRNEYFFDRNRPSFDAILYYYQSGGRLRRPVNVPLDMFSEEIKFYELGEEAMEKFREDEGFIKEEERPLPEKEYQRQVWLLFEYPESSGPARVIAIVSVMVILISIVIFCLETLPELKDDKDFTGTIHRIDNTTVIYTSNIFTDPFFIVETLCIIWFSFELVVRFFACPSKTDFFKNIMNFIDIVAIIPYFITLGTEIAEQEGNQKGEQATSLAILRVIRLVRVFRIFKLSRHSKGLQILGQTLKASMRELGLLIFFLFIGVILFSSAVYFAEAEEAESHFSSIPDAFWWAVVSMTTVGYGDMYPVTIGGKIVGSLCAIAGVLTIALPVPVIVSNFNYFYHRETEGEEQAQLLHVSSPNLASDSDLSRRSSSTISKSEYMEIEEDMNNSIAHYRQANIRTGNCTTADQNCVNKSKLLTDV

On to `CC(C)/N=c1\cc2n(-c3ccc(Cl)cc3)c3ccccc3nc-2cc1Nc1ccc(Cl)cc1` [clofazimine, Clofazimine], for which, in assay [1], the “effect on calcium entry” value is on record as “inhibited by clofazimine in a heterogeneous fashion; also recorded: only about a quarter of cells are responsive”. In addition, the “block of current, mouse Kv1.1” value at mouse Kv1.1 (10 μM) is “less than 50%”. Further, the IC50 on mouse Kv1.1 (inferred from block at 10 μM) was greater than 10000 nM; in assay [3] (Homo sapiens, Jurkat, Kv1.3 overexpression low to high, 1st curve, read-out: IC50, IL-2 luciferase reporter, Kv1.3 overexpression), 41.6 ± 8.4 nM; in assay [3] (Homo sapiens, Jurkat, Kv1.3 overexpression low to high, 2nd curve, read-out: IC50, IL-2 luciferase reporter, Kv1.3 overexpression), 41 ± 14.5 nM; in assay [3] (Homo sapiens, Jurkat, Kv1.3 overexpression low to high, 3rd curve, read-out: IC50, IL-2 luciferase reporter, Kv1.3 overexpression) it was 386 ± 214 nM; in assay [3] (Homo sapiens, Jurkat, Kv1.3 overexpression low to high, 4th curve, read-out: IC50, IL-2 luciferase reporter, Kv1.3 overexpression), 1370 ± 520 nM; in assay [3] (Homo sapiens, Jurkat, Kv1.3 overexpression low to high, 5th (highest) curve, read-out: IC50, IL-2 luciferase reporter, Kv1.3 overexpression), 1460 ± 630 nM. Also, the IC50 stood at 21.8 ± 4.4 nM in assay [3] (Homo sapiens, Jurkat, PMA/ionomycin-stimulated Jurkat T-cells, FIG. 1A, read-out: IC50, IL-2 luciferase reporter); 49.9 ± 13 nM in assay [3] (Homo sapiens, Jurkat, control EGFP-siRNA lentiviral transduced Jurkat T-cells, read-out: IC50, IL-2 luciferase reporter); 10.5 ± 2.4 nM in assay [3] (Homo sapiens, Jurkat, shKv1.3-4 (Kv1.3 knockdown) transduced Jurkat T-cells, read-out: IC50, IL-2 luciferase reporter); 56 ± 14.8 nM in assay [3] (Homo sapiens, Jurkat, PMA/ionomycin, FIG. 1C, read-out: IC50, IL-2 luciferase reporter); 22 nM in assay [3] (PMA/ionomycin-stimulated Jurkat T-cells, FIG. 1A, read-out: IC50, IL-2 luciferase reporter). Also, the “effect on reconstituted CRAC current” value is listed as “no effects” in assay [2] and “without affecting” in assay [2] (listed as Clofazimine). The “increase in IC50 value upon Kv1.3 overexpression” value in assay [3] (highest Kv1.3 expression plasmid (2 μg)) worked out at 35 fold. Moreover, the “decrease in IC50 values upon Kv1.3 knockdown” value in assay [3] (shKv1.3-4 vs shRNA against EGFP) is roughly 5 fold. The “effect on binding of GST-NFATc2 to calcineurin” value in assay [4] is “Nor did it affect the binding; also recorded: does not interfere with calcineurin-NFATc2 interaction”. The “beneficial effects in mouse skin or heart transplant models” value in assay [5] was “failed to show any beneficial effects”. Further, the “effect on AP-1 luciferase reporter” value was “enhanced, rather than inhibited” in the assay on AP-1 luciferase reporter and “significantly enhances” in the assay with AP-1 luciferase reporter (listed as Clofazimine).
